Data as given in US7829063B2, “Development of molecular imaging probes for carbonic anhydrase-IX using click chemistry” (Siemens Medical Solutions USA, Inc., priority 2007, dated 2010).

Target: T1, CA-IX (Homo sapiens, UniProt Q16790)
T1 construct: His tag (C); purchased R&D Systems Inc. 2188-CA; host or cells: mouse myeloma cell line NS0
Assay: Binding affinity (Kd) determination for CA-IX inhibitors, DNSA fluorescence competition assay, Scatchard plots
Details: Table 3
Experimental: General. […] The human red blood cells were obtained from Research Blood Components, LLC. All absorbance measurements were performed on a SPECTRA MAX M2 plate reader at 25° C. The LC/MS analyses were performed on an Agilent 1100 series LC/MSD (SL) using a 30×2.1 mm Zorbax C8 column with a Phenomenex C18 pre-column. Compound detection was accomplished by electrospray mass spectroscopy in positive selected ion mode (LC/MS-SIM). The elution solvents were acetonitrile and water, contained 0.05% TFA. Nuclear magnetic resonance (NMR) spectra were obtained on a Bruker AMX 300 MHz spectrometer or a Varian 400. 19F NMR spectra were recorded on a Bruker AMX 282.35 MHz or a Varian 400 spectrometer. The mass spectra were recorded on an Agilent 1100 series LC/MSD with electrospray mass spectroscopic detection. Flash column chromatography was performed on Merck silica gel (40-63 μm) using the solvent system indicated. The radiochemical and chemical purities were analyzed by RP-HPLC.
General Procedure of Binding Affinity (Ka) Determination for CA-IX Inhibitors
The assay was based on the observation that the only fluorescence signal detected at 460 nm upon excitation at 290 nm, an absorption […] for DNSA, was that of the DNSA.CA complex. […] The latter were developed for each test compound using mass balance for calculating the concentration of CA bound to DNSA [DNSA.CA], bound to the non-fluorescent sample [CA.Inh] and free CA [CA] in solution. The Kd values were determined from Scatchard plots using the equation below as described by Whitesides et al. [CA.Inh]/[CA]tot.[Inh]=K11^inh−K11^inh{[CA.Inh]+[CA.DNSA]}/([CA]tot)
The terms [CA.DNSA], [CA.Inh], and free CA were calculated using the mass balance based on the known values for the dissociation constant of CA.DNSA and the total concentration of CA in each reaction.

Compound | Kd [nM]
C[N+](C)(C)C[C@H](O)CC(=O)NCCOc1cccc(COCC(NC(=O)Cn2cc(COc3ccc4nc(S(N)(=O)=O)sc4c3)nn2)C(=O)O)c1 (some centres unmarked) [DHK3-156] | 10
COC(=O)[C@@H](CSCc1cccc(O)c1)NC(=O)[C@H](CCO)n1cc(COc2ccc3nc(S(N)(=O)=O)sc3c2)nn1 [VM2-93] | 10
NS(=O)(=O)c1nc2ccc(OCc3cn(C(Cc4ccc(F)cc4)C(=O)NC(COCc4cccc(OCCO)c4)C(=O)O)nn3)cc2s1 (single isomer, unassigned) [VM3-167A] | 5
COC(=O)[C@H](Cc1ccc(C(F)(F)F)cc1)NC(=O)[C@H](Cc1ccc(OCCF)cc1)n1cc(COc2ccc3nc(S(N)(=O)=O)sc3c2)nn1 [DHK2-127, (S)-methyl 2-((S)-3-(4-(2-fluoroethoxy)phenyl)-2-(4-((2-sulfamoylbenzo[d]thiazol-6-yloxy)methyl)-1H-1,2,3-triazol-1-yl)propanamido)-3-(4-(trifluoromethyl)phenyl)propanoate] | 2
NS(=O)(=O)c1nc2cc(OCc3cn(CC(=O)N[C@@H](CSCc4cccc(OCCF)c4)C(=O)O)nn3)ccc2s1 [VM2-41] | 5
NS(=O)(=O)c1nc2ccc(OCc3cn(CC(=O)N[C@H](CSCc4cccc(OCCn5cc(CCCF)nn5)c4)C(=O)O)nn3)cc2s1 [BW2-27, (S)-3-(3-(2-(4-(3-fluoropropyl)-1H-1,2,3-triazol-1-yl)ethoxy)benzylthio)-2-(2-(4-((2-sulfamoylbenzo[d]thiazol-6-yloxy)methyl)-1H-1,2,3-triazol-1-yl)acetamido)propanoic acid] | 10
CCOC(=O)C1CCN(C(=O)[C@H](Cc2ccccc2)n2cc(COc3ccc4nc(S(N)(=O)=O)sc4c3)nn2)CC1 [DHK2-68] | 3.4
NS(=O)(=O)c1nc2cc(OCc3cn(CC(=O)NCCCOCCOCCOCCCNC(=O)c4ccc(C(=O)O)c(-c5c6ccc(=O)cc-6oc6cc(O)ccc56)c4)nn3)ccc2s1 [WZ01101] | 14
NS(=O)(=O)c1nc2ccc(OCc3cn([C@@H](Cc4ccc(OCC(O)CF)cc4)C(=O)N[C@@H](Cc4ccc(C(F)(F)F)cc4)C(=O)O)nn3)cc2s1 (stereo partly drawn) [DHK2-173, (2S)-2-((2S)-3-(4-(3-fluoro-2-hydroxypropoxy)phenyl)-2-(4-((2-sulfamoylbenzo[d]thiazol-6-yloxy)methyl)-1H-1,2,3-triazol-1-yl)propanamido)-3-(4-(trifluoromethyl)phenyl)propanoic acid] | 2
CC(C)[C@@H](C(=O)N1CCC(C(=O)O)CC1)n1cc(COc2ccc3nc(S(N)(=O)=O)sc3c2)nn1 [DHK2-84] | 10
COCCOCCOCCOCCC(=O)NCCOc1cccc(CSC[C@@H](NC(=O)Cn2cc(COc3ccc4nc(S(N)(=O)=O)sc4c3)nn2)C(=O)O)c1 [DHK3-48] | 10
CC(C)[C@@H](C(=O)NCC1COc2ccccc2O1)n1cc(COc2ccc3nc(S(N)(=O)=O)sc3c2)nn1 (some centres unmarked) [DHK2-44] | 5
NS(=O)(=O)c1nc2ccc(OCc3cn([C@@H](Cc4ccc(OCCF)cc4)C(=O)N[C@@H](CC(=O)O)c4ccccc4)nn3)cc2s1 [DHK2-135] | 5
NS(=O)(=O)c1nc2ccc(OCc3cn([C@@H](Cc4ccc(OCCF)cc4)C(=O)NCc4ccc(C(F)(F)F)cc4)nn3)cc2s1 [DHK2-119] | 3.4
N#Cc1ccc(C[C@H](CC(=O)[C@H](Cc2ccc(OCCF)cc2)n2cc(COc3ccc4nc(S(N)(=O)=O)sc4c3)nn2)C(=O)O)cc1 [DHK2-187] | 17
NS(=O)(=O)c1nc2ccc(OCc3cn(CC(=O)N[C@@H](CSCc4ccccc4)C(=O)O)nn3)cc2s1 [DHK161] | 10
CC(C)[C@@H](C(=O)NCc1ccc(CN(C)C)o1)n1cc(-c2ccc(S(N)(=O)=O)cc2)nn1 [DHK2-95] | 25
NS(=O)(=O)c1nc2ccc(OCc3cn(CC(=O)NC(COCc4cccc(OCCNC(=O)CCC(=O)O)c4)C(=O)O)nn3)cc2s1 (centres unmarked) [DHK3-154] | 25
NS(=O)(=O)c1nc2ccc(OCc3cn([C@@H](Cc4ccccc4)C(=O)NCc4ccc(C(F)(F)F)cc4)nn3)cc2s1 [DHK2-51, (S)-3-phenyl-2-(4-((2-sulfamoylbenzo[d]thiazol-6-yloxy)methyl)-1H-1,2,3-triazol-1-yl)-N-(4-(trifluoromethyl)benzyl)propanamide] | 2.5
N[C@@H](CO)C(=O)NCCOc1cccc(COC[C@H](NC(=O)Cn2cc(COc3ccc4nc(S(N)(=O)=O)sc4c3)nn2)C(=O)O)c1 [VM3-163, (S)-3-(3-(2-((S)-2-amino-3-hydroxypropanamido)ethoxy)benzyloxy)-2-(2-(4-((2-sulfamoylbenzo[d]thiazol-6-yloxy)methyl)-1H-1,2,3-triazol-1-yl)acetamido)propanoic acid] | 10
NS(=O)(=O)c1nc2ccc(OCc3cn([C@@H](Cc4ccc(OCCF)cc4)C(=O)N[C@H](Cc4ccc(C(F)(F)F)cc4)C(=O)O)nn3)cc2s1 [DHK2-161] | 5
COC(=O)[C@@H](CSCc1cccc(OCCF)c1)NC(=O)[C@H](CCO)n1cc(COc2ccc3nc(S(N)(=O)=O)sc3c2)nn1 [VM2-106, (S)-methyl 3-(3-(2-fluoroethoxy)benzylthio)-2-(S)-4-hydroxy-2-(4-((2-sulfamoylbenzo[d]thiazol-6-yloxy)methyl)-1H-1,2,3-triazol-1-yl)butanamido) propanoate] | 5
NCCOc1cccc(COCC(NC(=O)Cn2cc(COc3ccc4nc(S(N)(=O)=O)sc4c3)nn2)C(=O)O)c1 (centres unmarked) [DHK3-149] | 10
NS(=O)(=O)c1nc2ccc(OCc3cn(CC(=O)N[C@H](CSCc4cccc(OCCOCCOCCF)c4)C(=O)O)nn3)cc2s1 [BW2-45, (S)-3-(3-(2-(2-(2-fluoroethoxy)ethoxy)ethoxy)benzylthio)-2-(2-(4-((2-sulfamoylbenzo[d]thiazol-6-yloxy)methyl)-1H-1,2,3-triazol-1-yl)acetamido) propanoic acid] | 5
CCOC(=O)C1CCN(C(=O)[C@H](Cc2ccc(OCCF)cc2)n2cc(COc3ccc4nc(S(N)(=O)=O)sc4c3)nn2)CC1 [DHK2-118] | 5

The remaining lines, values ahead:

Kd [nM] | Compound
11 | CC(C)[C@H](C(=O)N[C@H](Cc1ccc(OCC(O)CF)cc1)C(=O)O)n1cc(COc2ccc3nc(S(N)(=O)=O)sc3c2)nn1 (single isomer, unassigned) [VM4047b]
11 | CC(C)C(C(=O)N[C@@H](Cc1ccc(OC(CO)CF)cc1)C(=O)O)n1cc(COc2ccc3nc(S(N)(=O)=O)sc3c2)nn1 (single isomer, unassigned) [GGC121A]
1 | CC(C)[C@@H](C(=O)NCc1ccc(C(F)(F)F)cc1)n1cc(COc2ccc3nc(S(N)(=O)=O)sc3c2)nn1 [DHK2-24]
17 | NS(=O)(=O)c1nc2ccc(OCc3cn([C@@H](Cc4ccc(OCCF)cc4)C(=O)O)nn3)cc2s1 [BD2-09, (S)-3-(4-(2-fluoroethoxy)phenyl)-2-(4-((2-sulfamoylbenzo[d]thiazol-6-yloxy)methyl)-1H-1,2,3-triazol-1-yl)propanoic acid]
5 | NS(=O)(=O)c1nc2ccc(OCc3cn(CC(=O)N[C@@H](Cc4ccc(OCC(O)CF)cc4)C(=O)O)nn3)cc2s1 (stereo partly drawn) [VM4041, (S)-3-(4-(3-fluoro-2-hydroxypropoxy)phenyl)-2-(2-(4-((2-sulfamoylbenzo[d]thiazol-6-yloxy)methyl)-1H-1,2,3-triazol-1-yl)acetamido)propanoic acid]
0.5 | CC(C)[C@@H](C(=O)N[C@@H](Cc1ccc(C(F)(F)F)cc1)C(=O)O)n1cc(COc2ccc3nc(S(N)(=O)=O)sc3c2)nn1 [DHK2-132]
5 | CC(C)C(C(=O)NC(Cc1ccc(OCC(O)CF)cc1)C(=O)O)n1cc(COc2ccc3nc(S(N)(=O)=O)sc3c2)nn1 (single isomer, unassigned) [VM4047a]
11 | CC(C)C(C(=O)NC(COCc1cccc(OCCO)c1)C(=O)O)n1cc(COc2ccc3nc(S(N)(=O)=O)sc3c2)nn1 (single isomer, unassigned) [VM3-165B]
1.7 | CC(C)[C@@H](C(=O)N[C@@H](CC(=O)O)c1ccc(C(F)(F)F)cc1)n1cc(COc2ccc3nc(S(N)(=O)=O)sc3c2)nn1 [DHK2-133]
1.2 | COC(=O)[C@H](Cc1ccc(C(F)(F)F)cc1)NC(=O)[C@H](C(C)C)n1cc(COc2ccc3nc(S(N)(=O)=O)sc3c2)nn1 [DHK2-129]
13 | CC(C)C(C(=O)N[C@@H](Cc1ccc(OC(CO)CF)cc1)C(=O)O)n1cc(COc2ccc3nc(S(N)(=O)=O)sc3c2)nn1 (single isomer, unassigned) [GGC121B]
5 | CC(C)C(C(=O)NC(COCc1cccc(OCCO)c1)C(=O)O)n1cc(COc2ccc3nc(S(N)(=O)=O)sc3c2)nn1 (single isomer, unassigned) [VM3-165A]
1.7 | COC(=O)[C@H](Cc1ccc(C(F)(F)F)cc1)NC(=O)[C@H](C(C)C)n1cc(COc2ccc3nc(S(N)(=O)=O)sc3c2)nn1 [BW-96, (S)-methyl 2-((S)-3-methyl-2-(4-((2-sulfamoylbenzo[d]thiazol-6-yloxy)methyl)-1H-1,2,3-triazol-1-yl)butanamido)-3-(4-(trifluoromethyl)phenyl) propanoate]
